Test results from US20130123287A1, “CONTROL AGENT FOR SOFT ROT AND CONTROL METHOD FOR THE SAME” (ISHIHARA SANGYO KAISHA, LTD., priority 2010, published 2013).

Key:
[1] = system: soft rot of Chinese cabbage; test: Test for controlling soft rot of Chinese cabbage, Example 3 / Comparative Example 3 (field, cultivar Muso); type: in vivo; details: 500 g ai/10 a, 150 L/10 a sprayed onto planting holes before planting, 51 days after start
Source text: (§1) Frequency of the disease=[sigma(number of plants with the onset of the disease at each severity level*index of the onset of the disease)/(plants examined*4)]*100
(§2) Disease control value=[1-(frequency of the disease in the treated lot/frequency of the disease in the non-treated lot)]*100
(§3) • 0: No onset • 1: Onset in some of outer leaves (shippable) • 2: Onset in outer leaves and some of head leaves (by removing damaged parts, the resulting cabbage can be shipped as small cabbage but is ranked as grade B). • 3: Most of head leaves are inflicted with the onset of the disease or with severer damages (not shippable) • 4: Whole cabbage plant is inflicted with the onset of the disease and is dead.
442 g/l kresoxim-methyl (STROBY FLOWABLE [trade name], manufactured by BASF) was adjusted to 500 g ai/10a (0.5 g/m^2, 1131 ml Product/10a) as the amount of the active ingredient and to 150 L/10a as the volume of diluent water. […]
(§4) 51 days after the start of the tests, all the plants in each lot were examined about the severity level of the disease to assess the frequency of the disease and the disease control value. The frequency of the disease and the disease control value were determined in the same manner as described above. Because soft rot is a disease with damages hardly controlled, herein, even a chemical at the level C determined by the tests of the effects can practically be used.

[2] = system: soft rot of Chinese cabbage; test: Test for controlling soft rot of Chinese cabbage, Example 4 / Comparative Example 4 (field, cultivar Ouraku 60); type: in vivo; details: 500 g ai/10 a, 150 L/10 a sprayed onto planting holes before planting, 49 days after start
Source text: as §1, §2, §3
442 g/lkresoxim-methyl (STROBY FLOWABLE [trade name], manufactured by BASF) was adjusted to 500 g ai/10a (0.5 g/m^2, 1131 ml Product/10a) as the amount of the active ingredient and to 150 L/10a as the volume of diluent water.
70% w/w thiophanate methyl (Topsin M WF [trade name], manufactured by Nippon Soda Co., Ltd.) was adjusted to 1000 g ai/10a (1 g/m^2, 1429 g Product/10a) as the amount of the active ingredient and to 150 L/10a as the volume of diluent water.
50% w/w boscalid (Cantus DF [trade name], manufactured by BASF) was adjusted to 500 g ai/10a (0.5 g/m^2; 1000 g Product/10a) as the amount of the active ingredient and to 150 L/10a as the volume of diluent water.
50% w/w procymidone (Sumilex WP [trade name], manufactured by Sumitomo Chemical Agro) was adjusted to 500 g ai/10a (0.5 g/m^2, 1000 g Product/10a) as the amount of the active ingredient and to 150 L/10a as the volume of diluent water.
400 g/l iprodione (Rovral 500 Aqua [trade name], manufactured by Bayer Crop Science Co., Ltd.) was adjusted to 500 g ai/10a (0.5 g/m^2, […] Product/10a) as the amount of the active ingredient and to 150 L/10a as the volume of diluent water.
200 g/l fludioxonil (Seibia FLOWABLE [trade name], manufactured by Syngenta Japan K.K.) was adjusted to 500 g ai/10a (0.5 g/m^2, 2500 ml Product/10a) as the amount of the active ingredient and to 150 L/10a as the volume of diluent water.
400 g/l mepanipyrim (Flupika PLOWABLE [trade name], manufactured by Nippon Soda Co., Ltd.) was adjusted to 500 g ai/10a (0.5 g/m^2, 1250 ml Product/10a) as the amount of the active ingredient and to 150 L/10a as the volume of diluent water.
After spreading an agricultural mulch-sheet and opening planting holes (diameter of about 5 cm) for permanent planting through the mulch-sheet, the spray solutions prepared as described above were sprayed onto the planting holes such that the amount of treated active ingredient of each spray solution was 0.5 g/m^2 (150 L per 10a), followed by air-drying; subsequently, seedlings of Chinese cabbage (cultivar: Ouraku 60) grown for 4 weeks in cell mold trays (128 holes/nursery box) were planted such that 30 seedlings were planted in each test lot having an area of 2.5 m^2 with two replications.
Preparation was performed by diluting a chemical solution (Agrimycin WP100 [trade name] manufactured by Pfizer) containing oxytetracycline at 1.5% and streptomycin sulfate salt at 18.8% with water to 1/1500.
In a field spread with the agricultural mulch-sheet, Chinese cabbage seedlings (cultivar: Ouraku 60) grown by the same method as in Example 4 were planted by the same method as in Example 4, for spraying the spray solution prepared above in (1) (at each spray volume of 300 L/10a) twice (28 days and 42 days after the planting of the seedlings) on the stems and leaves.
as §4, with “49” for “51”, “Herein, the” for “The”

[3] = system: bacteria causing the soft rot (Erwinia carotovora); test: Inhibition test of growth of bacteria causing soft rot, Reference Test Example 4; type: cell-based; details: for formed colonies (growth state), grade: PSA medium, 27 degrees Celsius, 2 days
Source text: An inhibition test of the growth of bacteria causing the soft rot was done, when a control agent was directly applied to the bacteria causing the soft rot. A given volume of each pesticide of kresoxim-methyl (STROBY DF [trade name] manufactured by BASF), thiophanate methyl (Topsin M WP [trade name], manufactured by Nippon Soda Co., Ltd), boscalid (Cantus DF [trade name] manufactured by BASF), procymidone (Sumilex WP [trade name] manufactured by Sumitomo Chemical Agro Co., Ltd.) and streptomycin (Mycin Wettable powder [trade name] manufactured by Hokko Chemical Industry Co., Ltd.) was added together with a suspension of the bacteria causing the soft rot (Erwinia carotovora) to a preliminarily dissolved PSA culture medium (55 degrees Celsius) for subsequent thorough agitation, which was then spread on a plate for culturing at 27 degrees Celsius for 2 days, to examine the growth state. Subsequently, the formed colonies were examined according to the following three grades. • +: at the same level as the level of non-treated lot. Plus or minus: apparently less than the colonies of the non-treated lot. • −: almost no colonies observed.

CO/N=C(/C(=O)OC)c1ccccc1COc1ccccc1C [Kresoxim-methyl, methyl=(E)-methoxyimino[2-(o-tolyloxymethyl)phenyl]acetate]
Determination of effect [1]: C (C: Effective at low level (21 to 40 disease control value))
Determination of effect [2]: C (C: Effective at low level (21 to 40 disease control value))
formed colonies (growth state), grade ([3]; 100 ppm active ingredient): +, +
formed colonies (growth state), grade ([3]; 500 ppm active ingredient): +, +
formed colonies (growth state), grade ([3]; 1000 ppm active ingredient): +, +
inhibition of growth of Erwinia carotovora (in words) ([3]; active ingredient concentration of 1,000 ppm): never inhibited the growth
